How the values were obtained:
[1] = Pharmacokinetic test in rats; format: in vivo; conditions: rat; male SD rats, oral administration by gavage, 10 mg/kg, plasma
Description: For the pharmacokinetic test of rats, 3 male SD rats (180 g to 240 g) were employed and fasted overnight. The rats were orally administered a dose of 10 mg/kg by gavage. Blood was collected before the administration, and at 15 minutes, 30 minutes, 1 hour, 2 hours, 4 hours, 6 hours, 8 hours, and 24 hours after the administration. The blood samples were centrifuged at 8,000 rpm and at 4°C for 6 minutes, and plasma was collected and stored at -20°C. The plasma at each time point was taken and mixed with 3 to 5 volumes of an acetonitrile solution containing an internal standard. The mixture was vortexed for 1 minute, and centrifuged at 13,000 rpm and at 4°C for 10 minutes. The supernatant was collected and mixed with 3 volumes of water. An appropriate amount of the mixture was taken for LC-MS/MS analysis. The main pharmacokinetic parameters were analyzed by a non-compartmental model using WinNonlin 7.0 software. [Table 2] Results of Pharmacokinetic Test in Rats

AT2R = biological target: T1, AT2R (Homo sapiens, UniProt P50052); assay: Binding assay of compounds to AT2R (Tag-lite HTRF ligand binding kit); conditions: labeled cells, Tag-lite red fluorescent labeled ligand, 1 hour at room temperature
T1 construct: purchased Cisbio C1TT1AT2
T1 sequence (P50052 1-363): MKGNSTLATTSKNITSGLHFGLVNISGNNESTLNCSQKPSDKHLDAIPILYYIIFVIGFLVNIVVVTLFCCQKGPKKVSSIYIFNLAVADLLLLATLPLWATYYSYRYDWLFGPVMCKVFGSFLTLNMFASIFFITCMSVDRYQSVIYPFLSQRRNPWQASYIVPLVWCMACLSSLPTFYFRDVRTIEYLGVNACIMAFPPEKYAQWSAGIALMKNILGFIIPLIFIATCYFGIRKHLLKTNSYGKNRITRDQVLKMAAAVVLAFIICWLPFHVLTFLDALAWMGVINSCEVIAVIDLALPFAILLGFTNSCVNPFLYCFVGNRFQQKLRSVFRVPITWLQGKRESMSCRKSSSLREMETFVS
Description: The assay was performed in accordance with the manufacturer instructions of Angiotensin AT2 Receptor Ligand Binding Assay Kit (#C1TT1AT2, Cisbio). First, a 10 mM compound stock solution was diluted in a gradient at a 5× dilution ratio (including 10 concentrations, each with two replicates). 160 nL of compounds at different concentrations was added to a 384-well plate. 40 µL of 1× TLB was added to each well, and the mixture was shaken at room temperature for 15 minutes. A 15 mL centrifuge tube added with 5 mL of 1×TLB was prepared in advance. The frozen labeled cells were thawed in a water bath at 37°C (for 1 to 2 minutes), and the thawed cells were quickly transferred to the above 15 mL centrifuge tube. The mixture was mixed well and centrifuged at 1,000 g at room temperature for 5 minutes. The supernatant was removed, and the cells were resuspended by adding 2.7 mL 1× TLB. A new 384-well plate was taken, and 10 µL of mixed cells were added into the corresponding wells according to the assay design. 5 µL of 4× compound solution and 5 µL of 4× Tag-lite red fluorescent labeled ligand were added to each well. After incubation at room temperature for 1 hour, data was read using EnVision with an HTRF mode. The excitation light intensities at 665nM and 615nM in each well were read respectively, and the ratio was calculated (Ratio=A665nM/B615nM). The IC50 value was calculated by means of GraphPad Prism8 software, where X represents logarithmic value of compound concentration; and Y represents ratio of A665nM/B615nM. [Table 1] Binding activity of compounds to AT2R

hERG potassium channel = biological target: T2, hERG potassium channel (Homo sapiens, UniProt Q12809); assay: Effects on hERG channel currents by manual patch-clamp; format: cell-based; conditions: HEK-293 cell line stably expressing hERG potassium channel, tail current, room temperature; read-out: IC50 (inhibitory effects on hERG)
T2 construct: host or cells: HEK-293
T2 sequence (Q12809 whole entry): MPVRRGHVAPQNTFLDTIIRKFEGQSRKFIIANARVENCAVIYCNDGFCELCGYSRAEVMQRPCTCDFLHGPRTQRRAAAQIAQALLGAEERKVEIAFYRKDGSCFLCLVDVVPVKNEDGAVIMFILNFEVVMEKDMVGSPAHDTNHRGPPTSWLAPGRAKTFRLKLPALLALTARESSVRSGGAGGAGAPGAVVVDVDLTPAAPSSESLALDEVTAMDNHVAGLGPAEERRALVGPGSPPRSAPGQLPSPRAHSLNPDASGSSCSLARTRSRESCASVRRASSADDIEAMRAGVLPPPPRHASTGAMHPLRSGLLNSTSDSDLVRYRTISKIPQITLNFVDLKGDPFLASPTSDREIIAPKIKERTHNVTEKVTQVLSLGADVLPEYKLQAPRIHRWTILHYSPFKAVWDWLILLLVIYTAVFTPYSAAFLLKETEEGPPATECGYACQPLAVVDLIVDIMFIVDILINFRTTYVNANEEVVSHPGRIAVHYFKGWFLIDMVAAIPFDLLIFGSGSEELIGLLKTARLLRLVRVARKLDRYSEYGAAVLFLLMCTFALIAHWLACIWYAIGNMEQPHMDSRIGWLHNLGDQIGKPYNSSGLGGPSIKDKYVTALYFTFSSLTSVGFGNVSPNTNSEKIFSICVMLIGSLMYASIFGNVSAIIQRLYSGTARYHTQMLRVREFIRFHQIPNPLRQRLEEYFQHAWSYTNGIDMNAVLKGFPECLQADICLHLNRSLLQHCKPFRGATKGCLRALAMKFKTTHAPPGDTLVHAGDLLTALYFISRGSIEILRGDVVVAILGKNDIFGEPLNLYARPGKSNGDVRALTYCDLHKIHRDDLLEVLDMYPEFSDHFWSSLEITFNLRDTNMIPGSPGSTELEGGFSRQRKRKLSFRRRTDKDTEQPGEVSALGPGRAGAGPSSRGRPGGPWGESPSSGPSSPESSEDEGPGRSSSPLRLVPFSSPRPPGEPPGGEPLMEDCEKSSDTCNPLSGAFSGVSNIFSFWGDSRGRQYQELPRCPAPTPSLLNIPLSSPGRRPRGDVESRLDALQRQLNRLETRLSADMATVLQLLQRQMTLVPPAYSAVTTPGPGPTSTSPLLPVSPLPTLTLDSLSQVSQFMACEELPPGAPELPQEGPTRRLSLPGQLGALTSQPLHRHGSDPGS
Description: A manual patch-clamp assay was conducted using an HEK-293 cell line stably expressing an hERG potassium channel. hERG potassium channel cells were purchased from Creacell Co., Ltd. (catalog No.: A-0320). Final concentrations of test compounds were freshly prepared on the day of the assay, and then the test compounds were dissolved in an extracellular solution. The extracellular solution (mM) was: […], 3.5 mM KCl, 1 mM MgCl2·6H2O, 2 mM CaCl2·2H2O, 10 mM D-Glucose, 10 mM HEPES, 1.25 mM NaH2PO4·2H2O; pH 7.4 (titrated with NaOH). An intracellular solution (mM) was: 20 mM KCl, 115 mM K-Aspartic, 1 mM MgCl2·6H2O, 5 mM EGTA, 10 mM HEPES, 2 mM Na2-ATP; pH 7.4 (titrated with KOH).
Electrophysiological Assay: After whole-cell patch-clamp formation, the cell membrane potential was clamped at -80 mV. The holding potential was depolarized to -50 mV from -80 mV and maintained for 0.5 seconds (for leak current detection), then stepped to 30 mV for 2.5 seconds, and then rapidly repolarized back to -50 mV for 4 seconds to elicit a tail current of the hERG channel. Data was collected repeatedly every 10 seconds to observe the effects of the drug on hERG tail current (Peak tail currentcompound). A stimulation at -50 mV for 0.5 seconds was used for the leak current detection. Drug administration was initiated after the hERG current recorded in the whole-cell configuration stabilized. After each drug concentration was applied for 5 minutes (or until the current stabilized), the next concentration was tested. One or more concentrations were tested for each test compound. A current detected in each cell in a compound-free extracellular solution (Peak tail currentControl) served as an internal control for the corresponding cell. […]
Data Analysis: The inhibition rate corresponding to each drug concentration was calculated (1-(Peak tail currentcompound/Peak tail currentControl)), and the concentration-response curves were fitted using nonlinear regression in GraphPad Prism software. The IC50 value of each compound was calculated using the following equation: Y=1/(1+10^((LogIC50-X)×HillSlope)). […]

[2] = Pharmacokinetic test in canines; format: in vivo; conditions: dog; male Beagle canines, oral gavage, 5 mg/kg, plasma
Description: For the pharmacokinetic test of canines, 3 male Beagle canines (10 kg to 12 kg) were employed and fasted overnight. The canines were orally administered a dose of 5 mg/kg by gavage. Blood was collected before the administration, and at 5 minutes, 15 minutes, 30 minutes, 1 hour, 2 hours, 4 hours, 6 hours, 8 hours, and 24 hours after the administration. The blood samples were centrifuged at 6,000 g and at 2°C to 8°C for 3 minutes, and plasma was collected and stored at -20°C. The plasma at each time point was taken and mixed with 10 volumes of a 50% methanol in acetonitrile solution containing an internal standard. The mixture was vortexed for 5 minutes, and centrifuged at 4,000 rpm and at 4°C for 5 minutes. The supernatant was collected and mixed with 1 volume of water. An appropriate amount of the mixture was taken for LC-MS/MS analysis. The main pharmacokinetic parameters were analyzed by a non-compartmental model using WinNonlin 7.0 software. [Table 3] Results of Pharmacokinetic Test in Canines

AUC(0-t) [1] | Cmax [1] | IC50 (AT2R) | AUC(0-t) [2] | Cmax [2] | Compound | IC50 (hERG potassium channel)
14100 ng·h/mL | 4380 ng/mL | 4.1 nM |  |  | CC(C)Cc1cc(C(F)F)c(-c2nn[nH]n2)c(N2CCN(Cc3cccnn3)[C@@H](C)C2)c1 [Compound I-4, (S)-3-((4-(3-(difluoromethyl)-5-isobutyl-2-(2H-tetrazol-5-yl)phenyl)-2-methylpiperazin-1-yl)methyl)pyridazine] | > 30000 nM
 |  | 2.4 nM | 2290 ng·h/mL | 1320 ng/mL | CC(C)Cc1cc(OC(F)F)c(-c2nn[nH]n2)c(N2CCN(Cc3cccnn3)[C@@H](C)C2)c1 [Compound I-5, (S)-3-((4-(3-(difluoromethoxy)-5-isobutyl-2-(2H-tetrazol-5-yl)phenyl)-2-methylpiperazin-1-yl)methyl)pyridazine] | 22800 nM
 |  | 3.6 nM |  |  | CC(C)Cc1cc(OC(F)(F)F)c(-c2nn[nH]n2)c(N2CCN(Cc3cccnn3)[C@@H](C)C2)c1 [Compound I-6, (S)-3-((4-(5-isobutyl-2-(2H-tetrazol-5-yl)-3-(trifluoromethoxy)phenyl)-2-methylpiperazin-1-yl)methyl)pyridazine] | 
 |  | 8 nM |  |  | Cc1nnc(CN2CCN(c3cc(CC(C)C)cc(C(F)F)c3-c3nn[nH]n3)C[C@@H]2C)s1 [Compound I-7, (2S)-4-(3-(difluoromethyl)-2-(3H-1,2,3,4-tetrazol-5-yl)-5-isobutylphenyl)-2-methyl-1-((5-methyl-1,3,4-thiadiazol-2-yl)methyl)piperazine] | 
 |  | 2.5 nM |  |  | Cc1nnc(CN2CCN(c3cc(CC(C)C)cc(OC(F)F)c3-c3nn[nH]n3)C[C@@H]2C)s1 [Compound I-8, (2S)-4-(3-((difluoromethyl)oxy)-2-(3H-1,2,3,4-tetrazol-5-yl)-5-isobutylphenyl)-2-methyl-1-((5-methyl-1,3,4-thiadiazol-2-yl)methyl) piperazine] | 
10000 ng·h/mL | 3240 ng/mL | 12 nM | 1300 ng·h/mL | 850 ng/mL | CC(C)Cc1cc(F)c(-c2nn[nH]n2)c(N2CCN(Cc3cccnn3)[C@@H](C)C2)c1 [Control Compound I, reference compound] | 2800 nM

Reference: patent EP4793275A1, “AT2R ANTAGONIST AND USE THEREOF” (Hubei Bio-Pharmaceutical Industrial Technological Institute …, priority 2023, dated 2025)
